Test results taken from patent US6806229B1, “Herbicidally active pyridine sulfonyl urea derivatives” (LG Life Sciences, priority 2003, dated 2004).

system: Oryza sativa; assay: Phytotoxicity to rice (direct-seeded and transplanted) in paddy condition, greenhouse pot test; assay type: in vivo; conditions: 10 g/ha; direct-seeded rice, treated 5 days after sowing; visual rating after two weeks
From the text: (§1) Pots having a surface area of 150 cm^2 were filled with a small amount of fertilizer and sterilized paddy field soil in a muddy state with a depth of 5 cm. Five (5) seeds of pre-germinated rice were directly sown on the soil surface and three (3) rice seedlings (2˜3 leaves) prepared in advance were transplanted in a depth of 2 cm in each pot. In another pot, seeds of barnyardgrass were sown and incorporated into the surface layer of soil. After sowing and transplanting of rice plant and sowing of barnyardgrass, the pots were flooded with water 3 cm deep and kept in a greenhouse. The rice plant was treated with the chemicals 5 days after sowing or transplanting, and barnyardgrass was treated with the chemicals at the pre-emergence (5 days after from sowing) and post-emergence stage (at the three-leaf stage, usually after 15 days from sowing).
(§2) Suitable herbicidal compositions were prepared by mixing and dissolving 1 part by weight of the active compound with 5 parts by weight of acetone and 1 part by weight of alkylaryl polyglycolether as an emulsifier and then diluting with water to the predetermined concentration. Application was made by dropping the herbicide solutions onto the water surface of the pots.

| Structure (SMILES) | Phytotoxicity, Oryza sativa, Seed [%] |
| --- | --- |
| COCC(=O)O[C@H](c1nccc(Br)c1S(=O)(=O)NC(=O)Nc1nc(OC)cc(OC)n1)[C@H](C)F [Com. 6] | 0 |
| CCOC(=O)c1cnn(C)c1S(=O)(=O)NC(=O)Nc1nc(OC)cc(OC)n1 [Standard Compound E, Pyrazosulfuron-ethyl, reference compound] | 0 |
| COCC(=O)O[C@H](c1nccc(C)c1S(=O)(=O)NC(=O)Nc1nc(OC)cc(OC)n1)[C@H](C)F [Com. 7] | 0 |

same assay, conditions: 10 g/ha; transplanted rice seedlings, treated 5 days after transplanting; visual rating after two weeks

| Structure (SMILES) | Phytotoxicity, Oryza sativa, Transplanted [%] |
| --- | --- |
| COCC(=O)O[C@H](c1nccc(Br)c1S(=O)(=O)NC(=O)Nc1nc(OC)cc(OC)n1)[C@H](C)F [Com. 6] | 0 |
| CCOC(=O)c1cnn(C)c1S(=O)(=O)NC(=O)Nc1nc(OC)cc(OC)n1 [Standard Compound E, Pyrazosulfuron-ethyl, reference compound] | 0 |
| COCC(=O)O[C@H](c1nccc(C)c1S(=O)(=O)NC(=O)Nc1nc(OC)cc(OC)n1)[C@H](C)F [Com. 7] | 0 |

same assay, conditions: 20 g/ha; direct-seeded rice, treated 5 days after sowing; visual rating after two weeks

| Structure (SMILES) | Phytotoxicity, Oryza sativa, Seed [%] |
| --- | --- |
| COCC(=O)O[C@H](c1nccc(Br)c1S(=O)(=O)NC(=O)Nc1nc(OC)cc(OC)n1)[C@H](C)F [Com. 6] | 0 |
| CCOC(=O)c1cnn(C)c1S(=O)(=O)NC(=O)Nc1nc(OC)cc(OC)n1 [Standard Compound E, Pyrazosulfuron-ethyl, reference compound] | 10 |
| COCC(=O)O[C@H](c1nccc(C)c1S(=O)(=O)NC(=O)Nc1nc(OC)cc(OC)n1)[C@H](C)F [Com. 7] | 0 |

same assay, conditions: 20 g/ha; transplanted rice seedlings, treated 5 days after transplanting; visual rating after two weeks

| Structure (SMILES) | Phytotoxicity, Oryza sativa, Transplanted [%] |
| --- | --- |
| COCC(=O)O[C@H](c1nccc(Br)c1S(=O)(=O)NC(=O)Nc1nc(OC)cc(OC)n1)[C@H](C)F [Com. 6] | 0 |
| CCOC(=O)c1cnn(C)c1S(=O)(=O)NC(=O)Nc1nc(OC)cc(OC)n1 [Standard Compound E, Pyrazosulfuron-ethyl, reference compound] | 0 |
| COCC(=O)O[C@H](c1nccc(C)c1S(=O)(=O)NC(=O)Nc1nc(OC)cc(OC)n1)[C@H](C)F [Com. 7] | 0 |

same assay, conditions: 40 g/ha; direct-seeded rice, treated 5 days after sowing; visual rating after two weeks

| Structure (SMILES) | Phytotoxicity, Oryza sativa, Seed [%] |
| --- | --- |
| COCC(=O)O[C@H](c1nccc(Br)c1S(=O)(=O)NC(=O)Nc1nc(OC)cc(OC)n1)[C@H](C)F [Com. 6] | 10 |
| CCOC(=O)c1cnn(C)c1S(=O)(=O)NC(=O)Nc1nc(OC)cc(OC)n1 [Standard Compound E, Pyrazosulfuron-ethyl, reference compound] | 20 |
| COCC(=O)O[C@H](c1nccc(C)c1S(=O)(=O)NC(=O)Nc1nc(OC)cc(OC)n1)[C@H](C)F [Com. 7] | 20 |

same assay, conditions: 40 g/ha; transplanted rice seedlings, treated 5 days after transplanting; visual rating after two weeks

| Structure (SMILES) | Phytotoxicity, Oryza sativa, Transplanted [%] |
| --- | --- |
| COCC(=O)O[C@H](c1nccc(Br)c1S(=O)(=O)NC(=O)Nc1nc(OC)cc(OC)n1)[C@H](C)F [Com. 6] | 0 |
| CCOC(=O)c1cnn(C)c1S(=O)(=O)NC(=O)Nc1nc(OC)cc(OC)n1 [Standard Compound E, Pyrazosulfuron-ethyl, reference compound] | 0 |
| COCC(=O)O[C@H](c1nccc(C)c1S(=O)(=O)NC(=O)Nc1nc(OC)cc(OC)n1)[C@H](C)F [Com. 7] | 10 |

same assay, conditions: 80 g/ha; direct-seeded rice, treated 5 days after sowing; visual rating after two weeks, 0 = none, 100 = complete death

| Structure (SMILES) | Phytotoxicity, Oryza sativa, Seed [%] |
| --- | --- |
| COCC(=O)O[C@H](c1nccc(Br)c1S(=O)(=O)NC(=O)Nc1nc(OC)cc(OC)n1)[C@H](C)F [Com. 6] | 20 |
| CCOC(=O)c1cnn(C)c1S(=O)(=O)NC(=O)Nc1nc(OC)cc(OC)n1 [Standard Compound E, Pyrazosulfuron-ethyl, reference compound] | 30 |
| COCC(=O)O[C@H](c1nccc(C)c1S(=O)(=O)NC(=O)Nc1nc(OC)cc(OC)n1)[C@H](C)F [Com. 7] | 30 |

same assay, conditions: 80 g/ha; transplanted rice seedlings, treated 5 days after transplanting; visual rating after two weeks

| Structure (SMILES) | Phytotoxicity, Oryza sativa, Transplanted [%] |
| --- | --- |
| COCC(=O)O[C@H](c1nccc(Br)c1S(=O)(=O)NC(=O)Nc1nc(OC)cc(OC)n1)[C@H](C)F [Com. 6] | 20 |
| CCOC(=O)c1cnn(C)c1S(=O)(=O)NC(=O)Nc1nc(OC)cc(OC)n1 [Standard Compound E, Pyrazosulfuron-ethyl, reference compound] | 10 |
| COCC(=O)O[C@H](c1nccc(C)c1S(=O)(=O)NC(=O)Nc1nc(OC)cc(OC)n1)[C@H](C)F [Com. 7] | 20 |

system: Echinochloa crus-galli; assay: Herbicidal activity to barnyardgrass in paddy condition, pre- and post-emergence, greenhouse pot test; assay type: in vivo; conditions: 20 g/ha; pre- or post-emergence treatments
From the text: as §1, §2

| Structure (SMILES) | herbicidal activity to barnyardgrass [%] |
| --- | --- |
| CCOC(=O)c1cnn(C)c1S(=O)(=O)NC(=O)Nc1nc(OC)cc(OC)n1 [Standard Compound E, Pyrazosulfuron-ethyl, reference compound] | 10 |

same assay, conditions: Echinochloa crus-galli, 336 h; 5 g/ha; post-emergence, three-leaf stage; visual rating after two weeks; read-out: Herbicidal activity, Echinochloa crus-galli, Post-emergence (3-Leaf stage)

| Structure (SMILES) | pest or weed control at 5 g/ha [%] |
| --- | --- |
| COCC(=O)O[C@H](c1nccc(Br)c1S(=O)(=O)NC(=O)Nc1nc(OC)cc(OC)n1)[C@H](C)F [Com. 6] | 50 |
| CCOC(=O)c1cnn(C)c1S(=O)(=O)NC(=O)Nc1nc(OC)cc(OC)n1 [Standard Compound E, Pyrazosulfuron-ethyl, reference compound] | 0 |
| COCC(=O)O[C@H](c1nccc(C)c1S(=O)(=O)NC(=O)Nc1nc(OC)cc(OC)n1)[C@H](C)F [Com. 7] | 50 |

same assay, conditions: Echinochloa crus-galli, 336 h; 5 g/ha; pre-emergence (5 days after sowing); visual rating after two weeks; read-out: Herbicidal activity, Echinochloa crus-galli, Pre-emergence

| Structure (SMILES) | pest or weed control at 5 g/ha [%] |
| --- | --- |
| COCC(=O)O[C@H](c1nccc(Br)c1S(=O)(=O)NC(=O)Nc1nc(OC)cc(OC)n1)[C@H](C)F [Com. 6] | 60 |
| CCOC(=O)c1cnn(C)c1S(=O)(=O)NC(=O)Nc1nc(OC)cc(OC)n1 [Standard Compound E, Pyrazosulfuron-ethyl, reference compound] | 0 |
| COCC(=O)O[C@H](c1nccc(C)c1S(=O)(=O)NC(=O)Nc1nc(OC)cc(OC)n1)[C@H](C)F [Com. 7] | 60 |

same assay, conditions: Echinochloa crus-galli, 336 h; 10 g/ha; post-emergence, three-leaf stage; visual rating after two weeks; read-out: Herbicidal activity, Echinochloa crus-galli, Post-emergence (3-Leaf stage)

| Structure (SMILES) | pest or weed control at 10 g/ha [%] |
| --- | --- |
| COCC(=O)O[C@H](c1nccc(Br)c1S(=O)(=O)NC(=O)Nc1nc(OC)cc(OC)n1)[C@H](C)F [Com. 6] | 70 |
| CCOC(=O)c1cnn(C)c1S(=O)(=O)NC(=O)Nc1nc(OC)cc(OC)n1 [Standard Compound E, Pyrazosulfuron-ethyl, reference compound] | 0 |
| COCC(=O)O[C@H](c1nccc(C)c1S(=O)(=O)NC(=O)Nc1nc(OC)cc(OC)n1)[C@H](C)F [Com. 7] | 80 |

same assay, conditions: Echinochloa crus-galli, 336 h; 10 g/ha; pre-emergence (5 days after sowing); visual rating after two weeks; read-out: Herbicidal activity, Echinochloa crus-galli, Pre-emergence

| Structure (SMILES) | pest or weed control at 10 g/ha [%] |
| --- | --- |
| COCC(=O)O[C@H](c1nccc(Br)c1S(=O)(=O)NC(=O)Nc1nc(OC)cc(OC)n1)[C@H](C)F [Com. 6] | 80 |
| CCOC(=O)c1cnn(C)c1S(=O)(=O)NC(=O)Nc1nc(OC)cc(OC)n1 [Standard Compound E, Pyrazosulfuron-ethyl, reference compound] | 10 |
| COCC(=O)O[C@H](c1nccc(C)c1S(=O)(=O)NC(=O)Nc1nc(OC)cc(OC)n1)[C@H](C)F [Com. 7] | 80 |

same assay, conditions: Echinochloa crus-galli, 336 h; 20 g/ha; post-emergence, three-leaf stage; visual rating after two weeks; read-out: Herbicidal activity, Echinochloa crus-galli, Post-emergence (3-Leaf stage)

| Structure (SMILES) | pest or weed control at 20 g/ha [%] |
| --- | --- |
| COCC(=O)O[C@H](c1nccc(Br)c1S(=O)(=O)NC(=O)Nc1nc(OC)cc(OC)n1)[C@H](C)F [Com. 6] | 90 |
| CCOC(=O)c1cnn(C)c1S(=O)(=O)NC(=O)Nc1nc(OC)cc(OC)n1 [Standard Compound E, Pyrazosulfuron-ethyl, reference compound] | 0 |
| COCC(=O)O[C@H](c1nccc(C)c1S(=O)(=O)NC(=O)Nc1nc(OC)cc(OC)n1)[C@H](C)F [Com. 7] | 95 |

same assay, conditions: Echinochloa crus-galli, 336 h; 20 g/ha; pre-emergence (5 days after sowing); visual rating after two weeks; read-out: Herbicidal activity, Echinochloa crus-galli, Pre-emergence

| Structure (SMILES) | pest or weed control at 20 g/ha [%] |
| --- | --- |
| COCC(=O)O[C@H](c1nccc(Br)c1S(=O)(=O)NC(=O)Nc1nc(OC)cc(OC)n1)[C@H](C)F [Com. 6] | 100 |
| CCOC(=O)c1cnn(C)c1S(=O)(=O)NC(=O)Nc1nc(OC)cc(OC)n1 [Standard Compound E, Pyrazosulfuron-ethyl, reference compound] | 20 |
| COCC(=O)O[C@H](c1nccc(C)c1S(=O)(=O)NC(=O)Nc1nc(OC)cc(OC)n1)[C@H](C)F [Com. 7] | 90 |

same assay, conditions: Echinochloa crus-galli, 336 h; 30 g/ha; post-emergence, three-leaf stage; visual rating after two weeks; read-out: Herbicidal activity, Echinochloa crus-galli, Post-emergence (3-Leaf stage)

| Structure (SMILES) | pest or weed control at 30 g/ha [%] |
| --- | --- |
| COCC(=O)O[C@H](c1nccc(Br)c1S(=O)(=O)NC(=O)Nc1nc(OC)cc(OC)n1)[C@H](C)F [Com. 6] | 100 |
| CCOC(=O)c1cnn(C)c1S(=O)(=O)NC(=O)Nc1nc(OC)cc(OC)n1 [Standard Compound E, Pyrazosulfuron-ethyl, reference compound] | 20 |
| COCC(=O)O[C@H](c1nccc(C)c1S(=O)(=O)NC(=O)Nc1nc(OC)cc(OC)n1)[C@H](C)F [Com. 7] | 100 |

same assay, conditions: Echinochloa crus-galli, 336 h; 30 g/ha; pre-emergence (5 days after sowing); visual rating after two weeks, 0 = no activity, 100 = complete death; read-out: Herbicidal activity, Echinochloa crus-galli, Pre-emergence

| Structure (SMILES) | pest or weed control at 30 g/ha [%] |
| --- | --- |
| COCC(=O)O[C@H](c1nccc(Br)c1S(=O)(=O)NC(=O)Nc1nc(OC)cc(OC)n1)[C@H](C)F [Com. 6] | 100 |
| CCOC(=O)c1cnn(C)c1S(=O)(=O)NC(=O)Nc1nc(OC)cc(OC)n1 [Standard Compound E, Pyrazosulfuron-ethyl, reference compound] | 30 |
| COCC(=O)O[C@H](c1nccc(C)c1S(=O)(=O)NC(=O)Nc1nc(OC)cc(OC)n1)[C@H](C)F [Com. 7] | 100 |
